Results reported in patent publication US11214576B2, “2,3-dihydrofuro[2,3-b]pyridine compounds” (Eli Lilly and Company, priority 2018, dated 2022).

The compounds below were run against human O-GlcNAc-β-N-acetylglucosaminidase (OGA) (Homo sapiens (Human), UniProt O60502) (assay: In Vitro Human OGA Enzyme Assay). Settings: full-length His-tagged human OGA; FD-GlcNAc substrate 6.7 μM; 30 min pre-incubation, 60 min reaction, pH 7.
Sequence of human O-GlcNAc-β-N-acetylglucosaminidase (OGA) (O60502 whole entry): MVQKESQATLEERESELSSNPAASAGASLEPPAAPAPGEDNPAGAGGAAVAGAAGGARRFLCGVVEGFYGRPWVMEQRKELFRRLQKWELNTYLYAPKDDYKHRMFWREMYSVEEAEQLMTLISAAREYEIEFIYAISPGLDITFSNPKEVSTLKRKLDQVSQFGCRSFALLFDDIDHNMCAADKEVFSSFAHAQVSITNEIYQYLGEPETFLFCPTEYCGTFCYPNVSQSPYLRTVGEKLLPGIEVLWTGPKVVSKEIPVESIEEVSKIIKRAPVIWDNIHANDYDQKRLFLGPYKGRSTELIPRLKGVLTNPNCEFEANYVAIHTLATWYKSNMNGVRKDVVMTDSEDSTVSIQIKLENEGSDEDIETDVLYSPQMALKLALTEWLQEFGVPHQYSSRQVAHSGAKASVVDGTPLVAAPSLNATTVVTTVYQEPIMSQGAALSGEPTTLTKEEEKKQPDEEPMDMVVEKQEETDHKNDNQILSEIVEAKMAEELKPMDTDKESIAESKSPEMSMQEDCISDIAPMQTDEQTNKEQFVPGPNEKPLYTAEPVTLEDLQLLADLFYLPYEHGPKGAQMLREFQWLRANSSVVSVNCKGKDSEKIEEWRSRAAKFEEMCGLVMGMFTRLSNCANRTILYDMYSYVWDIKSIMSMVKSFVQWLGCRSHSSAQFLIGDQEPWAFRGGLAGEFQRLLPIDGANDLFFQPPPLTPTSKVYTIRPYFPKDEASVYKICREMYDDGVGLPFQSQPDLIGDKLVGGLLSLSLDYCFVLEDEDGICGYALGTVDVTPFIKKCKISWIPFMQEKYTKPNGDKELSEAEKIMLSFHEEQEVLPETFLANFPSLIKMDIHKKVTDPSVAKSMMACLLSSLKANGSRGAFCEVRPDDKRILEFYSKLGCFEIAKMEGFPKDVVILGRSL
Format: biochemical
Experimental: The nucleotide sequence encoding full-length human O-GlcNAc-β-N-acetylglucosaminidase (NM_012215) is inserted into pFastBacl (Invitrogen) vector with an N-terminal poly-histidine (HIS) tag. Baculovirus generation is carried out according to the Bac-to-Bac Baculovirus Expression system (Invitrogen) protocol. Sf9 cells are infected at 1.5×10^6 cells/mL using 10 mL of P1 virus per Liter of culture and incubated at 28° C. for 48 hrs. Cells are spun down, rinsed with PBS and the pellets stored at −80° C. The above OGA protein (His-OGA) is purified as follows: 4 L of cells are lysed in 200 mL of buffer containing 50 mM Tris, pH 8.0, 300 mM NaCl, 10% glycerol, 10 mM imidazole, 1 mM dithiothreitol (DTT), 0.1% Triton™ X-100, 4 tablets of protease inhibitors (complete EDTA-Free, Roche) for 45 min at 4° C. This cell lysate is then spun for 40 min at 16500 rpm at 4° C., and supernatant incubated with 6 mL of Ni-NTA resin (nickel-nitrilotriacetic acid) for 2 hours at 4° C.
Resin is then packed onto column and washed with 50 mM Tris, pH 8.0, 300 mM NaCl, 10% glycerol, 10 mM imidazole, 0.1% Triton™ X-100, 1 mM DTT, followed by 50 mM Tris, pH 8.0, 150 mM NaCl, 10 mM imidazole, 10% glycerol, 1 mM DTT. The proteins are eluted with 50 mM Tris, pH 8.0, 150 mM NaCl, 300 mM imidazole, 10% glycerol, 1 mM DTT. Pooled His-OGA containing fractions are concentrated to 6 ml and loaded onto Superdex75 (16/60). The protein is eluted with 50 mM Tris, pH 8.0, 150 mM NaCl, 10% glycerol, 2 mM DTT. Fractions containing His-OGA are pooled and protein concentration measured with BCA ([…]).
The OGA enzyme catalyses the removal of O-GlcNAc from nucleocytoplasmic proteins. To measure this activity Fluorescein di-N-acetyl-β-N-acetyl-D-glucosaminide (FD-GlcNAc, Kim, Eun Ju; Kang, Dae Ook; Love, Dona C.; Hanover, John A. Carbohydrate Research (2006), 341(8), 971-982) is used as a substrate at a final concentration of 6.7 μM (in a 384 well assay format). This fluorogenic substrate becomes fluorescent upon cleavage by OGA, so that the enzyme activity can be measured by the increase in fluorescence detected at 535 nm (excitation at 485 nm).
The assay buffer is prepared to give a final concentration of 50 mM […], 0.01% bovine serum albumin and 0.01% Triton™ X-100 in water, at pH 7. Compounds to be tested are diluted in pure dimethyl sulfoxide (DMSO) using ten point concentration response curves. Maximal compound concentration in the reaction mixture is 30 or 1 μM. […] Then, without stopping the reaction, fluorescence is read. IC50 values are calculated by plotting the normalized data vs. log of the compound and fitting the data using a four parameter logistic equation.
In the case of Cc1nnc(C2CCN(C(C)c3nc4c(cc3F)CCO4)CC2)o1 (single isomer, unassigned; (+)) [Example 4, (+)-5-fluoro-6-[1-[4-(5-methyl-1,3,4-oxadiazol-2-yl)-1-piperidyl]ethyl]-2,3-dihydrofuro[2,3-b]pyridine], the IC50 is reported as 2660 ± 607 nM.
Cc1nnc(C2CCN(C(C)c3ccc4c(n3)OCC4)CC2)o1 (single isomer, unassigned; (+)) [Example 3] showed an IC50 of 611 nM.
For Cc1nnc(C2CCN(C(C)c3nc4c(cc3F)CCO4)CC2)o1 (single isomer, unassigned; (-)) [Example 2, (−)-5-fluoro-6-[1-[4-(5-methyl-1,3,4-oxadiazol-2-yl)-1-piperidyl]ethyl]-2,3-dihydrofuro[2,3-b]pyridine], the IC50 was 1.13 ± 1.02 nM.
With Cc1nnc(C2CCN(C(C)c3ccc4c(n3)OCC4)CC2)o1 (single isomer, unassigned; (-)) [Example 1, (−)-6-[1-[4-(5-methyl-1,3,4-oxadiazol-2-yl)-1-piperidyl]ethyl]-2,3-dihydrofuro[2,3-b]pyridine] the IC50 was 1.24 ± 0.66 nM.
